According to patent US9980943B2, “Methods of treating muscular dystrophy” (BOARD OF REGENTS OF THE NEVADA SYSTEM OF HIGHER EDUCATION, …, priority 2013, dated 2018):

Legend:
Type in all cases: cell-based, mouse
[1] = tested on: α7 integrin (LacZ reporter in α7βgal+/− myoblasts); test: Myoblast α7+/LacZ integrin FDG assay (Burkin assay in myoblasts, 96-well); details: α7+/LacZ myoblasts, 96-well
[2] = tested on: α7 integrin (LacZ reporter in α7+/LacZ myotubes); test: Myotube α7 integrin FDG assay (Burkin assay in myotubes, 96-well); details: myotubes
[3] = tested on: β-galactosidase in CMV-LacZ C2C12 myotubes; test: CMV-LacZ secondary screen in C2C12 myotubes (β-Gal stabilizing assay); details: for CMV-LACZ in Myotubes, signal relative to DMSO: C2C12 CMV-LacZ myotubes, fold relative to DMSO; for CMV-LACZ in Myotubes (β-galactosidase activity relative to DMSO): CMV-LacZ C2C12 myotubes, 96-well format
Summary of the method: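 Stable CMV-LacZ C2C12 clone; six-point curve 0.5–40 μM; duplicates.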

Row | Structure (SMILES) | Burkin Assay in Myoblasts, signal relative to DMSO ([1]; 0.5 uM) | Burkin Assay in Myoblasts, signal relative to DMSO ([1]; 1 uM) | Burkin Assay in Myoblasts, signal relative to DMSO ([1]; 5 uM) | Burkin Assay in Myoblasts, signal relative to DMSO ([1]; 10 uM) | Burkin Assay in Myoblasts, signal relative to DMSO ([1]; 20 uM) | Burkin Assay in Myoblasts, signal relative to DMSO ([1]; 40 uM) | Burkin Assay in Myotubes, α7 integrin LacZ reporter signal relative to DMSO ([2]; 0.5 uM) | Burkin Assay in Myotubes, α7 integrin LacZ reporter signal relative to DMSO ([2]; 1 uM) | Burkin Assay in Myotubes, α7 integrin LacZ reporter signal relative to DMSO ([2]; 5 uM) | Burkin Assay in Myotubes, α7 integrin LacZ reporter signal relative to DMSO ([2]; 10 uM) | Burkin Assay in Myotubes, α7 integrin LacZ reporter signal relative to DMSO ([2]; 20 uM) | Burkin Assay in Myotubes, α7 integrin LacZ reporter signal relative to DMSO ([2]; 40 uM) | CMV-LACZ in Myotubes, signal relative to DMSO ([3]; 5 uM) | CMV-LACZ in Myotubes, signal relative to DMSO ([3]; 10 uM) | CMV-LACZ in Myotubes, signal relative to DMSO ([3]; 20 uM) | CMV-LACZ in Myotubes, signal relative to DMSO ([3]; 40 uM) | Burkin Assay in Myoblasts, value relative to DMSO ([1]; 0.5 uM) | Burkin Assay in Myoblasts, value relative to DMSO ([1]; 1 uM) | Burkin Assay in Myoblasts, value relative to DMSO ([1]; 5 uM) | Burkin Assay in Myoblasts, value relative to DMSO ([1]; 10 uM) | other results
1 | COc1ccc(S(=O)(=O)N(NC2=NS(=O)(=O)c3ccccc32)C(=O)C(C)C)cc1 [MLS000682883-01] | 0.9476 | 0.9633 | 1.011 | 0.9192 | 0.8269 | 0.7379 | 0.8116 | 1.095 | 0.9936 | 1.01 | 1.102 | 1.094 | 0.9333 | 1.084 | 1.087 | 0.8967 |  |  |  |  | 
2 | Cc1ccc(-c2csc(Nc3ccc(C(=O)O)cc3)[n+]2Cc2ccccc2)cc1 [MLS000374261-01] |  |  |  |  |  |  |  |  |  |  |  |  |  |  |  |  | 0.7676 | 0.7758 | 0.7248 | 0.7138 | Burkin Assay in Myoblasts, value relative to DMSO ([1]; 20 uM): 0.8376; Burkin Assay in Myoblasts, value relative to DMSO ([1]; 40 uM): 0.8321; Burkin Assay in Myotubes (signal relative to DMSO) ([2]; 0.5 uM): 0.8144; Burkin Assay in Myotubes (signal relative to DMSO) ([2]; 1 uM): 0.8386; Burkin Assay in Myotubes (signal relative to DMSO) ([2]; 5 uM): 1.131; Burkin Assay in Myotubes (signal relative to DMSO) ([2]; 10 uM): 0.9288; Burkin Assay in Myotubes (signal relative to DMSO) ([2]; 20 uM): 0.423; Burkin Assay in Myotubes (signal relative to DMSO) ([2]; 40 uM): 0.449; CMV-LACZ in Myotubes (β-galactosidase activity relative to DMSO) ([3]; 5 uM): 0.8246; CMV-LACZ in Myotubes (β-galactosidase activity relative to DMSO) ([3]; 10 uM): 0.8319; CMV-LACZ in Myotubes (β-galactosidase activity relative to DMSO) ([3]; 20 uM): 0.448; CMV-LACZ in Myotubes (β-galactosidase activity relative to DMSO) ([3]; 40 uM): 0.5036
3 | N/C(=N\OC(=O)COc1cc(Cl)c(Cl)cc1Cl)c1ccncc1 [MLS000625140-01] |  |  |  |  |  |  |  |  |  |  |  |  |  |  |  |  | 0.8839 | 0.8709 | 0.8748 | 0.7833 | Burkin Assay in Myoblasts, value relative to DMSO ([1]; 20 uM): 0.7589; Burkin Assay in Myoblasts, value relative to DMSO ([1]; 40 uM): 0.6829; Burkin Assay in Myotubes (signal relative to DMSO) ([2]; 0.5 uM): 0.8484; Burkin Assay in Myotubes (signal relative to DMSO) ([2]; 1 uM): 0.8454; Burkin Assay in Myotubes (signal relative to DMSO) ([2]; 5 uM): 1.114; Burkin Assay in Myotubes (signal relative to DMSO) ([2]; 10 uM): 0.9131; Burkin Assay in Myotubes (signal relative to DMSO) ([2]; 20 uM): 0.6793; Burkin Assay in Myotubes (signal relative to DMSO) ([2]; 40 uM): 0.6514; CMV-LACZ in Myotubes (β-galactosidase activity relative to DMSO) ([3]; 5 uM): 0.9172; CMV-LACZ in Myotubes (β-galactosidase activity relative to DMSO) ([3]; 10 uM): 1.036; CMV-LACZ in Myotubes (β-galactosidase activity relative to DMSO) ([3]; 20 uM): 1.107; CMV-LACZ in Myotubes (β-galactosidase activity relative to DMSO) ([3]; 40 uM): 1.016
4 | CCCOc1nc(SCCC)nc2c1cnn2-c1ccccc1 [MLS000737953-01] | 0.9 | 0.9673 | 1.003 | 1.08 | 1.149 | 1.233 | 0.9665 | 1.135 | 1.241 | 1.226 | 1.007 | 0.5339 | 0.8274 | 1.224 | 0.9478 | 0.9096 |  |  |  |  | 
